These results are taken from ChEMBL document CHEMBL4627375, “Monovalent protein-degraders - Insights and future perspectives” (Bioorg Med Chem Lett, 2020).

Each structure is given as a SMILES string.

Test [1] has as its target Protein phosphatase 1 regulatory subunit 15A (Homo sapiens, UniProt O75807). The test can be described thus: Inhibition of amino-terminal MBP-tagged/carboxy-terminal His6-tagged human PPP1R15A (325 to 626 residues).
Test [2] concerns the target Maternal embryonic leucine zipper kinase (Homo sapiens, UniProt Q14680). The test can be described thus: Inhibition of MELK (unknown origin).
The target in test [3] is T1, Protein phosphatase 1 regulatory subunit 15B (Homo sapiens, UniProt Q5SWA1).
T1 sequence (Q5SWA1 whole entry): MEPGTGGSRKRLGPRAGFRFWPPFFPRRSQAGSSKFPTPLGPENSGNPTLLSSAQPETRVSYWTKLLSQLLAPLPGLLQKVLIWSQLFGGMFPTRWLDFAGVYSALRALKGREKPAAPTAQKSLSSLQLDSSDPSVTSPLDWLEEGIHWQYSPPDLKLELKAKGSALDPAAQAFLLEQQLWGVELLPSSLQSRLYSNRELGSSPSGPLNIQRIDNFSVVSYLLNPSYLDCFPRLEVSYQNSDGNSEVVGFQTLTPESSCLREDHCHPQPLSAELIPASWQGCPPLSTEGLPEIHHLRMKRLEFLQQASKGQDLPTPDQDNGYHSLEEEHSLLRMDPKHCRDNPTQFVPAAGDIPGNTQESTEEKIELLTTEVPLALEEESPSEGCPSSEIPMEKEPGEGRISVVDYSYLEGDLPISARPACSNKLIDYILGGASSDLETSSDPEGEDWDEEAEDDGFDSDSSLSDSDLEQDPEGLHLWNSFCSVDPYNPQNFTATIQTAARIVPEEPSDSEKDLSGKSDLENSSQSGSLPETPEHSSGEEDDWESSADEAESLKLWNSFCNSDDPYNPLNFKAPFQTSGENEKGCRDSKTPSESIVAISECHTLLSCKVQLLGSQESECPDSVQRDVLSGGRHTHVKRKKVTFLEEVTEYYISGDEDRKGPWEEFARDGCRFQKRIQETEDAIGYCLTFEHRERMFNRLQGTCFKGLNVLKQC
The test can be described thus: Inhibition of amino-terminal MBP-tagged/carboxy-terminal His6-tagged human PPP1R15B (325 to 626 residues).

For test [4], the species on record is Homo sapiens. The test can be described thus: Selectivity ratio, ratio of IC50 for HDAC6 (unknown origin) to Class 1 HDAC (unknown origin).
Test [5] concerns the target T2, Protein deacetylase HDAC6 (Homo sapiens, UniProt Q9UBN7).
T2 sequence (Q9UBN7 whole entry): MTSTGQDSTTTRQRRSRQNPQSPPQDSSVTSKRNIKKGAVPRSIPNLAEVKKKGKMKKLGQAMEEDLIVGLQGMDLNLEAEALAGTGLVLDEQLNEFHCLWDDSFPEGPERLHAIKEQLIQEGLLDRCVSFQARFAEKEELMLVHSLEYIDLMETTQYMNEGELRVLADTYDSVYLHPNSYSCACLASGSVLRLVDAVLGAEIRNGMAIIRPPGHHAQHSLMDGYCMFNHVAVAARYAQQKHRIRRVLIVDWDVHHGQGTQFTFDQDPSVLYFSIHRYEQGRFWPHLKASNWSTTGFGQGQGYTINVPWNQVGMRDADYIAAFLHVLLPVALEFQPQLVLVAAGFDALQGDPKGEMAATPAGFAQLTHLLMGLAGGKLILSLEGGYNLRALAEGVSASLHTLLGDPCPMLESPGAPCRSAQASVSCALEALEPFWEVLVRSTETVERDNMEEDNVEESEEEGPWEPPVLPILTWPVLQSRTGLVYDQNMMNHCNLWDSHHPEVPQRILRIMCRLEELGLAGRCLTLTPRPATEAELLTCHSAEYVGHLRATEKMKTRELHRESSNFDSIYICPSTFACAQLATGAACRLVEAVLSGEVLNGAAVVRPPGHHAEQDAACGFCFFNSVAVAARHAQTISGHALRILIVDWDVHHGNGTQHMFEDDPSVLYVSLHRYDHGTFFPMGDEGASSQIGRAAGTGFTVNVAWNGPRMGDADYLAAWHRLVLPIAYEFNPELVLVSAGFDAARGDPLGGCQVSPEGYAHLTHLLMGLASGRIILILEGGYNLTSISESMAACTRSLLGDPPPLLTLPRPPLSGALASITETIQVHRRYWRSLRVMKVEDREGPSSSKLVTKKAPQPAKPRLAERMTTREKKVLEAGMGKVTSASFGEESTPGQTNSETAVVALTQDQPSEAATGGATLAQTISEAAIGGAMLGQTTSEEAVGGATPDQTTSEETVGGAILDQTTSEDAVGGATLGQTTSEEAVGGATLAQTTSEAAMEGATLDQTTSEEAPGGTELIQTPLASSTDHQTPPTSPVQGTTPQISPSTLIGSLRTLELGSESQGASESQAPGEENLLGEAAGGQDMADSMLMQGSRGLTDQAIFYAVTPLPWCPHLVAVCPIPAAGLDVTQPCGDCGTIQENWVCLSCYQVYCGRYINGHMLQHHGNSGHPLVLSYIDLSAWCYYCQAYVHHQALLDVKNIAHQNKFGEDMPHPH
The test can be described thus: Inhibition of HDAC6 (unknown origin).

Sequence of Maternal embryonic leucine zipper kinase (Q14680 whole entry): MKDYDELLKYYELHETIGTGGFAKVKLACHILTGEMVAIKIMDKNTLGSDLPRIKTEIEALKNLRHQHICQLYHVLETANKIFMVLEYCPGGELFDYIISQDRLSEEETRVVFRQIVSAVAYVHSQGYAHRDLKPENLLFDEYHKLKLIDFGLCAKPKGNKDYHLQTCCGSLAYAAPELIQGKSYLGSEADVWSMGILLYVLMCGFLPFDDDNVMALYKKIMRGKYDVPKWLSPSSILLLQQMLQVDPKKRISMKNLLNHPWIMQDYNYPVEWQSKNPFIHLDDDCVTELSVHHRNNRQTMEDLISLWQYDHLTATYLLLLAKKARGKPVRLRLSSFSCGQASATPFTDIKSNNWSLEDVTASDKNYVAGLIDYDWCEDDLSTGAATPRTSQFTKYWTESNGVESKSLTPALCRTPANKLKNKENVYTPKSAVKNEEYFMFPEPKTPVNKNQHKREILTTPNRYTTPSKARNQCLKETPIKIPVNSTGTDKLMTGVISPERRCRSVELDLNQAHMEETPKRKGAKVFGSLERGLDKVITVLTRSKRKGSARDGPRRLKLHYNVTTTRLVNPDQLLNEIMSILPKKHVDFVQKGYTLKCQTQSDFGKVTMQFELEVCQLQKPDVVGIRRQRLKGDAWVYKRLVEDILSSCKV
Sequence of Protein phosphatase 1 regulatory subunit 15A (O75807 whole entry, the tested form may be a part): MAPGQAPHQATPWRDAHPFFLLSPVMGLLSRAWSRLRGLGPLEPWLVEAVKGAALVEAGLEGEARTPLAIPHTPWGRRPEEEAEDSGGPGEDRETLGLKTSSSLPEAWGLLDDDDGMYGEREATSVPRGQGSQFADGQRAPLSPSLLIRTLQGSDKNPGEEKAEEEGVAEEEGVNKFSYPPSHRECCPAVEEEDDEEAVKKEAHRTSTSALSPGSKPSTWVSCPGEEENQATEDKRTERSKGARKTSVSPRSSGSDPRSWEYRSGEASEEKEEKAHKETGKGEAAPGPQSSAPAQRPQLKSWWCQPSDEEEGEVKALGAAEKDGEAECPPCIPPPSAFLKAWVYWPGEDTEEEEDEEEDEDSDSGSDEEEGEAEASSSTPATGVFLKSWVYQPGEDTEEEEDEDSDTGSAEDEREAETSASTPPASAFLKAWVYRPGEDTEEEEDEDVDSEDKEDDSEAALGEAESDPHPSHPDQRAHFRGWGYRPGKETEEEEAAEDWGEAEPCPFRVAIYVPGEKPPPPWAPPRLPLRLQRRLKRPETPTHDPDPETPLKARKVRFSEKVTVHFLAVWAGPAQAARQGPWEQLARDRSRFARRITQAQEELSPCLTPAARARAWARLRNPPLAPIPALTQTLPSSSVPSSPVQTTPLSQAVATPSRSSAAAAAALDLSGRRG

With `N=C(N)N/N=C/c1cccc(Cl)c1Cl`, the IC50 is 977 nM in test [1], 200 to 500 nM in test [2] and 33 nM in test [3].
As to `COc1ccc(/C=C2\SC(=S)NC2=O)cc1C#C[Si](C)(C)C`, the IC50 in test [2] fell in the range of 200 to 500 nM.
The same measure, in the same setting: then `CNC(=O)COc1cc2cc(Nc3nc(N4C[C@H](C)C[C@H](C)C4)ncc3Cl)ccc2n(C)c1=O`, with 200 to 500 nM.
`O=C(NO)c1ccc(Cn2c(=O)n(CCc3ccccc3)c(=O)c3ccccc32)cc1`: the values for the IC50 in test [2] and in test [5] were 200 to 500 nM and 4.7 nM, respectively. Besides, the Ratio IC50 in test [4] stood at 200.

The IC50 is the concentration that gives 50% inhibition. Higher therefore signals lower potency.
